From patent publication US12077503B2, “Substituted cyclic amides and their use as herbicides” (FMC CORPORATION, priority 2015, dated 2024)

Experiments:
Type in all cases: in vivo
[1] = tested on: barnyardgrass (Echinochloa crus-galli); assay: Test A postemergence; settings: postemergence, 0 to 100 scale (0 no effect, 100 complete control)
Summary of the method: (§1)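 Each rating is a visual injury score from 0 to 100 given about 10 d after treatment, judged against untreated controls kept alongside in the greenhouse. In loam soil–sand blend, seeds got a preemergence directed soil spray, while postemergence plants were 2 to 10 cm tall at spraying.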

[2] = tested on: wheat (Triticum aestivum); assay: Test A postemergence; settings: postemergence, 0 to 100 scale (0 no effect, 100 complete control)
Summary of the method: as §1

[3] = tested on: pigweed (Amaranthus retroflexus); assay: Test A postemergence; settings: postemergence, 0 to 100 scale (0 no effect, 100 complete control)
Summary of the method: as §1

[4] = tested on: blackgrass (Alopecurus myosuroides); assay: Test A postemergence; settings: postemergence, 0 to 100 scale (0 no effect, 100 complete control)
Summary of the method: as §1

[5] = tested on: ryegrass, Italian (Italian ryegrass, Lolium multiflorum); assay: Test A postemergence; settings: postemergence, 0 to 100 scale (0 no effect, 100 complete control)
Summary of the method: as §1

Kochia (Kochia scoparia) [6] = assay: Test A postemergence; settings: postemergence, 0 to 100 scale (0 no effect, 100 complete control)
Summary of the method: as §1

[7] = tested on: giant foxtail (Setaria faberii); assay: Test A postemergence; settings: postemergence, 0 to 100 scale (0 no effect, 100 complete control)
Summary of the method: as §1

[8] = tested on: ragweed (common ragweed, Ambrosia elatior); assay: Test A postemergence; settings: postemergence, 0 to 100 scale (0 no effect, 100 complete control)
Summary of the method: as §1

corn (Zea mays) = assay: Test A postemergence; settings: postemergence, 0 to 100 scale (0 no effect, 100 complete control)
Summary of the method: as §1

[9] = tested on: Galium (catchweed bedstraw, Galium aparine); assay: Test A postemergence; settings: postemergence, 0 to 100 scale (0 no effect, 100 complete control)
Summary of the method: as §1

[10] = tested on: barnyardgrass (Echinochloa crus-galli); assay: Test C flooded paddy test; settings: Flood; for Plant response rating (scale of 0 to 100), Barnyardgrass: 0 is no effect, 100 is complete control
Summary of the method: (§2)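 Visual 0–100 injury rating versus controls (0 = no effect, 100 = complete control) at 13 to 15 d. 2-leaf-stage plants; pots flooded 3 cm over soil surface, test compound added to paddy water; greenhouse.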

rice (Oryza sativa) = assay: Test C flooded paddy test; settings: Flood; for Plant response rating (scale of 0 to 100), Rice: 0 is no effect, 100 is complete control
Summary of the method: as §2

[11] = tested on: ducksalad (Heteranthera limosa); assay: Test C flooded paddy test; settings: Flood; for Plant response rating (scale of 0 to 100), Ducksalad: 0 is no effect, 100 is complete control
Summary of the method: as §2

[12] = tested on: sedge, umbrella (small-flower umbrella sedge, Cyperus difformis); assay: Test C flooded paddy test; settings: Flood; for Plant response rating (scale of 0 to 100), Sedge, Umbrella: 0 is no effect, 100 is complete control
Summary of the method: as §2

rice (Oryra sativa) = assay: Test B flooded paddy test; settings: Flood, 250 g ai/ha; 0 to 100 scale where 0 is no effect and 100 is complete control; 13 to 15 d
Summary of the method: (§3)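 Rating scale 0–100 (visual, vs untreated controls) after a 13–15 d greenhouse period; application to the flood layer, 3 cm above soil and maintained; plants at 2-leaf stage when treated.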

[13] = tested on: barnyardgrass (Echinochloa crus-galli); assay: Test B flooded paddy test; settings: Flood, 250 g ai/ha; 0 to 100 scale where 0 is no effect and 100 is complete control; 13 to 15 d
Summary of the method: as §3

[14] = tested on: ducksalad (Heteranthera limosa); assay: Test B flooded paddy test; settings: Flood, 250 g ai/ha; 0 to 100 scale where 0 is no effect and 100 is complete control; 13 to 15 d
Summary of the method: as §3

[15] = tested on: sedge, umbrella (small-flower umbrella sedge, Cyperus difformis); assay: Test B flooded paddy test; settings: Flood, 250 g ai/ha; 0 to 100 scale where 0 is no effect and 100 is complete control; 13 to 15 d
Summary of the method: as §3

[16] = tested on: barnyardgrass (Echinochloa crus-galli); assay: Test A preemergence
Summary of the method: as §1

[17] = tested on: pigweed (Amaranthus retroflexus); assay: Test A preemergence
[18] = tested on: ryegrass, Italian (Italian ryegrass, Lolium multiflorum); assay: Test A preemergence
Summary of the method: as §1

Kochia (Kochia scoparia) [19] = assay: Test A preemergence
Summary of the method: as §1

[20] = tested on: giant foxtail (Setaria faberii); assay: Test A preemergence
Summary of the method: as §1

[21] = tested on: ragweed (common ragweed, Ambrosia elatior); assay: Test A preemergence
Summary of the method: as §1

[22] = 125 g ai/ha, visual rating after approx. 10 d
[23] = 500 g ai/ha, visual injury, approx. 10 d
[24] = 31 g ai/ha, scale 0 to 100 (0 no effect, 100 complete control), 13 to 15 d
[25] = 125 g ai/ha, Preemergence, visual injury after approximately 10 d, 0 to 100 scale where 0 is no effect and 100 is complete control
[26] = 500 g ai/ha, preemergence, 0 to 100 scale, 0 = no effect, 100 = complete control

Cc1ccc(C2CN(C)C(=O)C2C(=O)Nc2ccc(F)cc2F)cc1 (stereo not shown) [Compound 664]
Plant response rating, Barnyardgrass [1, 22]: 90 | Plant response rating, Barnyardgrass [1, 23]: 90 | Plant response rating, Wheat [2, 22]: 50 | Plant response rating, Wheat [2, 23]: 70 | Plant response rating, Pigweed [3, 22]: 20 | Plant response rating, Pigweed [3, 23]: 20 | Plant response rating, Blackgrass [4, 22]: 50 | Plant response rating, Blackgrass [4, 23]: 60 | Plant response rating, Ryegrass, Italian [5, 22]: 30 | Plant response rating, Ryegrass, Italian [5, 23]: 70 | Plant response rating, Kochia (Kochia (Kochia scoparia) [6]; [22]): 60 | Plant response rating, Kochia (Kochia (Kochia scoparia) [6]; [23]): 70 | Plant response rating, Foxtail, Giant [7, 22]: 90 | Plant response rating, Foxtail, Giant [7, 23]: 90 | Plant response rating, Ragweed [8, 22]: 10 | Plant response rating, Ragweed [8, 23]: 20 | Plant response rating, Corn (corn (Zea mays); [22]): 50 | Plant response rating, Corn (corn (Zea mays); [23]): 90 | Plant response rating, Galium [9, 22]: 50 | Plant response rating, Galium [9, 23]: 60 | Plant response rating, Barnyardgrass [10, 24]: 0 | Plant response rating (scale of 0 to 100), Barnyardgrass ([10]; 62 g ai/ha): 65 | Plant response rating (scale of 0 to 100), Barnyardgrass ([10]; 125 g ai/ha): 70 | Plant response rating (scale of 0 to 100), Barnyardgrass ([10]; 250 g ai/ha): 70 | Plant response rating, Rice (rice (Oryza sativa); [24]): 0 | Plant response rating (scale of 0 to 100), Rice (rice (Oryza sativa); 62 g ai/ha): 0 | Plant response rating (scale of 0 to 100), Rice (rice (Oryza sativa); 125 g ai/ha): 0 | Plant response rating (scale of 0 to 100), Rice (rice (Oryza sativa); 250 g ai/ha): 0 | Plant response rating, Ducksalad [11, 24]: 45 | Plant response rating (scale of 0 to 100), Ducksalad ([11]; 62 g ai/ha): 70 | Plant response rating (scale of 0 to 100), Ducksalad ([11]; 125 g ai/ha): 85 | Plant response rating (scale of 0 to 100), Ducksalad ([11]; 250 g ai/ha): 100 | Plant response rating, Sedge, Umbrella [12, 24]: 0 | Plant response rating (scale of 0 to 100), Sedge, Umbrella ([12]; 62 g ai/ha): 0 | Plant response rating (scale of 0 to 100), Sedge, Umbrella ([12]; 125 g ai/ha): 0 | Plant response rating (scale of 0 to 100), Sedge, Umbrella ([12]; 250 g ai/ha): 0 | Plant response rating, Rice (rice (Oryra sativa)): 0 | Plant response rating, Barnyardgrass [13]: 85 | Plant response rating, Ducksalad [14]: 100 | Plant response rating, Sedge, Umbrella [15]: 0 | Plant response rating, Barnyardgrass [16, 25]: 90 | Plant response rating, Barnyardgrass [16, 26]: 90 | Plant response rating, Pigweed [17, 25]: 60 | Plant response rating, Pigweed [17, 26]: 60 | Plant response rating, Ryegrass, Italian [18, 25]: 20 | Plant response rating, Ryegrass, Italian [18, 26]: 80 | Plant response rating, Kochia (Kochia (Kochia scoparia) [19]; [25]): 70 | Plant response rating, Kochia (Kochia (Kochia scoparia) [19]; [26]): 70 | Plant response rating, Foxtail, Giant [20, 25]: 90 | Plant response rating, Foxtail, Giant [20, 26]: 100 | Plant response rating, Ragweed [21, 25]: 20 | Plant response rating, Ragweed [21, 26]: 80
